From ChEMBL document CHEMBL1138055, “Tetraoxane antimalarials and their reaction with Fe(II)” (J Med Chem, 2006)
pIC50: −log10 of the molar value. Several values for one entry are separate records, joined by “and”; a condition that tells them apart may be missing. Identical values can stand only once.

Key:
Mus musculus [1] = assay: Effect on survival of CD1 mice (Mus musculus) infected with Plasmodium berghei KBG173 at 50 mg/kg/day, perorally; type: functional; settings: route oral
NCI-H23 = assay: Antiproliferative activity against human NCI-H23 cell line after 48 hrs; type: functional; settings: NCI-H23, 48 h
Vero [2] = assay: Selectivity index, IC50 for VERO cells/IC50 for Plasmodium falciparum D6; type: functional
Mus musculus [3] = assay: Effect on survival of CD1 mice (Mus musculus) infected with Plasmodium berghei KBG173 at 200 mg/kg/day, perorally; type: functional; settings: route oral
Plasmodium falciparum [4] = assay: microbe, parasite or virus in culture; settings: D6
Description: (§1) Antimalarial activity against Plasmodium falciparum D6

NCI-H460 = assay: Antiproliferative activity against human NCI-H460 cell line after 48 hrs; type: functional; settings: NCI-H460, 48 h
UO-31 = assay: Antiproliferative activity against human UO31 cell line after 48 hrs; type: functional; settings: for CC50: read-out: LC50 (the source's name)
ACHN = assay: Antiproliferative activity against human ACHN cell line after 48 hrs; type: functional
HOP-62 = assay: Antiproliferative activity against human HOP62 cell line after 48 hrs; type: functional; settings: for CC50: read-out: LC50 (the source's name)
Vero [5] = assay: Selectivity index, IC50 for VERO cells/LC50 for UO31 cells; type: functional
COLO 205 = assay: Antiproliferative activity against human COLO 205 cell line after 48 hrs; type: functional; settings: for CC50: read-out: LC50 (the source's name)
IGROV-1 = assay: Antiproliferative activity against human IGROV1 cell line after 48 hrs; type: functional; settings: for CC50: read-out: LC50 (the source's name)
RPMI-8226 = assay: Antiproliferative activity against human RPMI8226 cell line after 48 hrs; type: functional
Plasmodium falciparum [6] = assay: microbe, parasite or virus in culture; settings: W2
Description: (§2) Antimalarial activity against Plasmodium falciparum W2

SF-268 = assay: Antiproliferative activity against human SF268 cell line after 48 hrs; type: functional; settings: SF-268, 48 h
Vero [7] = assay: Selectivity index, IC50 for VERO cells/IC50 for Plasmodium falciparum W2; type: functional
CAKI-1 = assay: Antiproliferative activity against human CAKI1 cell line after 48 hrs; type: functional; settings: CAKI-1, 48 h
Vero [8] = assay: Cytotoxicity against VERO cells; type: functional, cell-based; settings: Chlorocebus sabaeus
Mus musculus [9] = assay: Effect on survival of CD1 mice (Mus musculus) infected with Plasmodium berghei KBG173 at 600 mg/kg/day, perorally; type: functional, organism-based; parameters: route oral; settings: route oral
TK-10 = assay: Antiproliferative activity against human TK10 cell line after 48 hrs; type: functional; settings: TK-10, 48 h
Liver microsomes = assay: Intrinsic clearance in human liver microsomes; type: ADME, Microsome
[10] = Half life in human liver microsomes; type: ADME, Microsome
[11] = Half life in mouse liver microsomes; type: ADME, Microsome
Plasmodium falciparum [12] = tested on: Plasmodium falciparum
Description: Antimalarial activity against Plasmodium falciparum TM91C235

786-0 = assay: Antiproliferative activity against human 786-0 cell line after 48 hrs; type: functional; settings: 786-0, 48 h
Plasmodium falciparum [13] = tested on: Plasmodium falciparum; remark: listed apart in the source
Description: as §1

LOX IMVI = assay: Antiproliferative activity against human LOX IMVI cell line after 48 hrs; type: functional; settings: for CC50: read-out: LC50 (the source's name)
Mus musculus [14] = organism: Mus musculus; assay: Intrinsic clearance in mouse liver microsomes; type: ADME, Microsome
Plasmodium falciparum [15] = tested on: Plasmodium falciparum; remark: listed apart in the source
Description: as §2

SK-MEL-28 = assay: Antiproliferative activity against human SK-MEL28 cell line after 48 hrs; type: functional; settings: SK-MEL-28, 48 h
SF-539 = assay: Antiproliferative activity against human SF539 cell line after 48 hrs; type: functional; settings: SF-539, 48 h
U-251 = assay: Antiproliferative activity against human U251 cell line after 48 hrs; type: functional; settings: U-251, 48 h
EKVX = assay: Antiproliferative activity against human EKVX cell line after 48 hrs; type: functional
SR = assay: Antiproliferative activity against human SR cell line after 48 hrs; type: functional
[16] = read-out: LC50 (the source's name)

For `CCCC(=O)CC[C@@H](C)[C@H]1CC[C@H]2[C@@H]3[C@H](OC(C)=O)C[C@@H]4CC5(CC[C@]4(C)[C@H]3C[C@H](OC(C)=O)[C@]12C)OOC1(CCCCC1)OO5`, the Activity (Mus musculus [1]) was 14.2 days, the GI50 (NCI-H23) was 610 nM and the TGI (NCI-H23) was 1990 nM. The CC50 (NCI-H23; [16]) was 4640 nM, the Selectivity index (Vero [2]) was 823 and the Activity (Mus musculus [3]) was 24.4 days. It also gave a pIC50 (Plasmodium falciparum [4]) of 7.83, a GI50 (NCI-H460) of 180 nM and a TGI (NCI-H460) of 590 nM. The CC50 (NCI-H460; [16]) was 2600 nM, the GI50 (UO-31; Homo sapiens, UO-31, 48 h) was less than 10 nM and the TGI (UO-31; Homo sapiens, UO-31, 48 h) was less than 10 nM. For the same molecule, the CC50 (UO-31; Homo sapiens, UO-31, 48 h) was 17 nM, the GI50 (ACHN; Homo sapiens, ACHN, 48 h) was 1340 nM and the LC50 (ACHN; Homo sapiens, ACHN, 48 h) was 5120 nM. For the same molecule, the TGI (ACHN; Homo sapiens, ACHN, 48 h) was 2620 nM, the GI50 (HOP-62; Homo sapiens, HOP-62, 48 h) was 440 nM and the TGI (HOP-62; Homo sapiens, HOP-62, 48 h) was 1720 nM. It also gave a CC50 (HOP-62; Homo sapiens, HOP-62, 48 h) of 5400 nM, a Selectivity index (Vero [5]) of 726 and a GI50 (COLO 205; Homo sapiens, COLO 205, 48 h) of 1770 nM. For the same molecule, the TGI (COLO 205; Homo sapiens, COLO 205, 48 h) was 3720 nM, the CC50 (COLO 205; Homo sapiens, COLO 205, 48 h) was 7820 nM and the GI50 (IGROV-1; Homo sapiens, IGROV-1, 48 h) was 190 nM. For the same molecule, the TGI (IGROV-1; Homo sapiens, IGROV-1, 48 h) was 460 nM, the CC50 (IGROV-1; Homo sapiens, IGROV-1, 48 h) was 1360 nM and the TGI (RPMI-8226; Homo sapiens, RPMI-8226, 48 h) was 3470 nM. The CC50 (RPMI-8226; [16]) was 1280 nM and 9370 nM, the pIC50 (Plasmodium falciparum [6]) was 8.17 and the GI50 (SF-268) was 1570 nM. For the same molecule, the TGI (SF-268) was 3900 nM, the CC50 (SF-268; [16]) was 9680 nM and the Selectivity index (Vero [7]) was 1763. The GI50 (CAKI-1) was 180 nM, the TGI (CAKI-1) was 400 nM and the CC50 (CAKI-1; [16]) was 910 nM. The pIC50 (Vero [8]) was 4.91, the Activity (Mus musculus [9]) was 28 days and the GI50 (TK-10) was 1670 nM. The TGI (TK-10) was 3620 nM and the CC50 (TK-10; [16]) was 7840 nM.
Molecule `CC(=O)O[C@H]1C[C@H]2[C@@H]([C@H](OC(C)=O)C[C@@H]3CC4(CC[C@@]32C)OOC2(CCC(C(N)=O)CC2)OO4)[C@@H]2CC[C@H]([C@H](C)CCC(N)=O)[C@@]12C` (stereo in doubt; 7) has a CL (Liver microsomes) of 3.4 mL/min/g, a half-life [10] of 21 min and a half-life [11] of 38 min. The pIC50 (Plasmodium falciparum [12]) was 7.93, the IC90 (Plasmodium falciparum [12]) was 56.7 nM and the GI50 (786-0) was 1690 nM. It also gave an LC50 (786-0) of 8080 nM, a TGI (786-0) of 3700 nM and a pIC50 (Plasmodium falciparum [13]) of 7.96. It also gave an IC90 (Plasmodium falciparum [13]) of 17.3 nM, a GI50 (LOX IMVI) of 1850 nM and a TGI (LOX IMVI) of 3950 nM. For the same molecule, the CC50 (LOX IMVI) was 8420 nM, the CL (Mus musculus [14]) was 1.59 mL/min/g and the pIC50 (Plasmodium falciparum [15]) was 7.77. It also gave an IC90 (Plasmodium falciparum [15]) of 34.4 nM.
`CC(=O)O[C@H]1C[C@H]2[C@@H]([C@H](OC(C)=O)C[C@@H]3CC4(CC[C@@]32C)OOC2(CCC(C(=O)NCCN(C)C)CC2)OO4)[C@@H]2CC[C@H]([C@H](C)CCC(=O)NCCN(C)C)[C@@]12C` (stereo in doubt; 11) showed a GI50 (SK-MEL-28) of 1920 nM, a TGI (SK-MEL-28) of 11300 nM and a CC50 (SK-MEL-28; [16]) of 37000 nM. It also gave a CL (Liver microsomes) of less than 0.6 mL/min/g, a GI50 (SF-539) of 1470 nM and a TGI (SF-539) of 2990 nM. For the same molecule, the CC50 (SF-539; [16]) was 9930 nM, the half-life [10] was greater than 120 min and the half-life [11] was greater than 120 min. The pIC50 (Plasmodium falciparum [12]) was 7.09, the IC90 (Plasmodium falciparum [12]) was 110 nM and the pIC50 (Plasmodium falciparum [13]) was 7.12. It also gave an IC90 (Plasmodium falciparum [13]) of 94.1 nM, a GI50 (IGROV-1; Homo sapiens, IGROV-1, 48 h) of 900 nM and a TGI (IGROV-1; Homo sapiens, IGROV-1, 48 h) of 2620 nM. It also gave a CC50 (IGROV-1; Homo sapiens, IGROV-1, 48 h) of 13400 nM, a GI50 (LOX IMVI) of 1180 nM and a TGI (LOX IMVI) of 2820 nM. It also gave a CC50 (LOX IMVI) of 19900 nM, a CL (Mus musculus [14]) of less than 0.6 mL/min/g and a pIC50 (Plasmodium falciparum [15]) of 6.95. The IC90 (Plasmodium falciparum [15]) was 126 nM.
In the case of `CC(=O)O[C@H]1C[C@H]2[C@@H]([C@H](OC(C)=O)C[C@@H]3CC4(CC[C@@]32C)OOC2(CCC(C)CC2)OO4)[C@@H]2CC[C@H]([C@H](C)CCC(N)=O)[C@@]12C` (stereo in doubt; 15), the Activity (Mus musculus [1]) was 21.4 days, the GI50 (U-251) was 1780 nM and the TGI (U-251) was 3780 nM. The CC50 (U-251; [16]) was 8060 nM, the Activity (Mus musculus [3]) was 27.2 days and the TGI (UO-31) was 3080 nM. The CC50 (UO-31) was 6110 nM, the LC50 (ACHN) was 1800 nM and 8350 nM and the TGI (ACHN) was 3880 nM. It also gave a GI50 (HOP-62) of 1470 nM, a TGI (HOP-62) of 2960 nM and a CC50 (HOP-62) of 5960 nM. For the same molecule, the TGI (COLO 205) was 3190 nM, the CC50 (COLO 205) was 6520 nM and the GI50 (IGROV-1) was 1540 nM. The TGI (IGROV-1) was 3070 nM, the CC50 (IGROV-1) was 6140 nM and the Activity (Mus musculus [9]) was 29.2 days. The GI50 (EKVX) was 1010 nM, the LC50 (EKVX) was 5490 nM and the TGI (EKVX) was 2350 nM.
`CC(=O)O[C@H]1C[C@H]2[C@@H]([C@H](OC(C)=O)C[C@@H]3CC4(CC[C@@]32C)OOC2(CCC(C)CC2)OO4)[C@@H]2CC[C@H]([C@H](C)CCC(=O)O)[C@@]12C` (stereo in doubt; 16) gave an Activity (Mus musculus [1]) of 12.2 days, a GI50 (SR) of 1630 nM and a TGI (SR) of 3820 nM. It also gave a CC50 (SR; [16]) of 8920 nM, an Activity (Mus musculus [3]) of 24.8 days and a pIC50 (Plasmodium falciparum [13]) of 8.82. It also gave a pIC50 (Plasmodium falciparum [15]) of 9.01 and an Activity (Mus musculus [9]) of 29 days.
